Laboratory results taken from patent US9394263B2, “Substituted hetero-azepinones” (priority 2012, dated 2016).
Where a name gives a salt, the structure may show the parent alone.

Each molecule was assayed against BIR3 domain of XIAP (Homo sapiens (Human), UniProt P98170) (assay: TR-FRET assay for BIR3: inhibition of binding of XIAP BIR3 domain to Peptide A (SMAC-derived peptide)). Settings: not given.
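For BIR2 IC50 in this document: percent inhibition measured across a concentration series of each compound, from which the IC50 was derived.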

Chain of BIR3 domain of XIAP (P98170 241-356 with tags or gaps limits assumed): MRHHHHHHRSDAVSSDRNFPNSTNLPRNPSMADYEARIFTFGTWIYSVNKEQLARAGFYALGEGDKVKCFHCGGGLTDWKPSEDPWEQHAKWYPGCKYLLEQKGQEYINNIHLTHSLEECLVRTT

Row | SMILES | IC50 [nM]
1 | CN[C@@H](C)C(=O)N[C@H]1CSc2c(NC(=O)C3CCN(C(C)=O)CC3)cccc2N(Cc2cccc3ccccc23)C1=O [Example 23, 1-Acetyl-piperidine-4-carboxylic acid [(R)-3-((S)-2-methylamino-propionylamino)-5-naphthalen-1-ylmethyl-4-oxo-2,3,4,5-tetrahydro-benzo[b][1,4]thiazepin-9-yl]-amide] | > 54800
2 | [2H]C([2H])([2H])N[C@@H](C)C(=O)N[C@@H]1C(=O)N(Cc2c(OC)ccc3cc(Br)ccc23)c2ccccc2OC12CCOCC2 [Example 19, (2S)-N-(5-((6-Bromo-2-methoxynaphthalen-1-yl)methyl)-(3S)-4-oxo-2′,3′,5′,6′-tetrahydro-3H-spiro[benzo[b][1,4]oxazepine-2,4′-pyran]-3-yl)-2-(methyl-d3-amino)propanamide hydrochloride] | 22900

Same assay, conditions: read-out: BIR3 IC50

Row | IC50 [nM] | SMILES
3 | > 54800 | CCN[C@@H](C)C(=O)N[C@@H]1C(=O)N(Cc2c(C#N)n(-c3ccccc3C#N)c3ccccc23)c2ccccc2O[C@H]1C [Example 77, (S)-N-((2S,3S)-5-((2-Cyano-1-(2-cyanophenyl)-1H-indol-3-yl)methyl)-2-methyl-4-oxo-2,3,4,5-tetrahydrobenzo[b][1,4]oxazepin-3-yl)-2-(ethylamino)propanamide]
4 | > 54800 | CN[C@@H](C)C(=O)N[C@H]1COc2ccccc2N(Cc2nn(-c3ccccc3C#N)c3cc(Br)ccc23)C1=O [Example 72, (S)-N-((S)-5-((6-Bromo-1-(2-cyanophenyl)-1H-indazol-3-yl)methyl)-4-oxo-2,3,4,5-tetrahydrobenzo[b][1,4]oxazepin-3-yl)-2-(methylamino)propanamide trifluoroacetate]
5 | > 50000 | CC[C@H](NC)C(=O)N[C@@H]1C(=O)N(Cc2c(OC)ccc3cc(Br)ccc23)c2ccc(F)cc2OC12CCOCC2 [Example 16, (2S)-N-(5-((6-Bromo-2-methoxynaphthalen-1-yl)methyl)-(3S)-8-fluoro-4-oxo-2′,3′,5′,6′-tetrahydro-3H-spiro[benzo[b][1,4]oxazepine-2,4′-pyran]-3-yl)-2-(methylamino)butanamide hydrochloride]
6 | > 54800 | CN[C@@H](C)C(=O)N[C@H]1CSc2c(NC(=O)COCCOC)cccc2N(Cc2cccc3ccccc23)C1=O [Example 22, (S)-N-{(R)-9-[2-(2-Methoxy-ethoxy)-acetylamino]-5-naphthalen-1-ylmethyl-4-oxo-2,3,4,5-tetrahydro-benzo[b][1,4]thiazepin-3-yl}-2-methylamino-propionamide hydrochloride]

Each molecule was assayed against BIR2 domain of XIAP (Homo sapiens (Human), UniProt P98170, C202A/C213G) (assay: TR-FRET assay for BIR2: inhibition of binding of XIAP BIR2 domain to Peptide A (SMAC-derived peptide)). Settings: not given.
Chain of BIR2 domain of XIAP (P98170 other isoform, or with tags, fused parts or gaps, stated change not applied): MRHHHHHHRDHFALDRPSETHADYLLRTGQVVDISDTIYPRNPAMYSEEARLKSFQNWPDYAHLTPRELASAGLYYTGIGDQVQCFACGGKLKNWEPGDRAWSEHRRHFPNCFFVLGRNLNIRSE

Row | IC50 [nM] | SMILES
7 | 373 | CN[C@@H](C)C(=O)N[C@H]1CSc2c(NC(=O)C3CCN(C(C)=O)CC3)cccc2N(Cc2cccc3ccccc23)C1=O [Example 23, 1-Acetyl-piperidine-4-carboxylic acid [(R)-3-((S)-2-methylamino-propionylamino)-5-naphthalen-1-ylmethyl-4-oxo-2,3,4,5-tetrahydro-benzo[b][1,4]thiazepin-9-yl]-amide]
8 | 141 | CN[C@@H](C)C(=O)N[C@@H]1C(=O)N(Cc2c(OC)cnc3ccccc23)c2ccccc2OC12CCOCC2 [Example 1r]
9 | 65 | CN[C@@H](C)C(=O)N[C@@H]1C(=O)N(Cc2c(OC)ccc3cc(Br)ccc23)c2ccccc2OC12CCOCC2 [Example 1g]
10 | 118 | CN[C@@H](C)C(=O)N[C@@H]1C(=O)N(Cc2nn(-c3ccc(C(=O)O)cc3C#N)c3ccccc23)c2ccccc2O[C@H]1C [Example 80, 3-Cyano-4-(3-(((2S,3S)-2-methyl-3-((S)-2-(methylamino)propanamido)-4-oxo-3,4-dihydrobenzo[b][1,4]oxazepin-5(2H)-yl)methyl)-1H-indazol-1-yl)benzoic acid trifluoroacetate]
11 | 4360 | CN[C@@H](C)C(=O)N[C@H]1C(=O)N(Cc2c(OC)ccc3cc(Br)ccc23)c2ccccc2OC12CCOCC2 [Example 1f]

Same assay, conditions: read-out: BIR2 IC50

Row | SMILES | IC50 [nM]
12 | CN[C@@H](C)C(=O)N[C@H]1COc2ccc(C(F)(F)F)cc2N(Cc2c(OC)ccc3cc(Br)ccc23)C1=O [Example 42, (S)-N-((S)-5-((6-Bromo-2-methoxynaphthalen-1-yl)methyl)-4-oxo-7-(trifluoromethyl)-2,3,4,5-tetrahydrobenzo[b][1,4]oxazepin-3-yl)-2-(methylamino)propanamide trifluoroacetate] | 57
13 | CCN[C@@H](C)C(=O)N[C@@H]1C(=O)N(Cc2c(C#N)n(-c3ccccc3C#N)c3ccccc23)c2ccccc2O[C@H]1C [Example 77, (S)-N-((2S,3S)-5-((2-Cyano-1-(2-cyanophenyl)-1H-indol-3-yl)methyl)-2-methyl-4-oxo-2,3,4,5-tetrahydrobenzo[b][1,4]oxazepin-3-yl)-2-(ethylamino)propanamide] | 107
14 | CN[C@@H](C)C(=O)N[C@@H]1C(=O)N(Cc2c(OC)ccc3cc(Br)ccc23)c2ccc(C)cc2O[C@H]1C [Example 39, (S)-N-((2S,3S)-5-((6-Bromo-2-methoxynaphthalen-1-yl)methyl)-2,8-dimethyl-4-oxo-2,3,4,5-tetrahydrobenzo[b][1,4]oxazepin-3-yl)-2-(methylamino)propanamide trifluoroacetate] | 54
15 | CN[C@@H](C)C(=O)N[C@H]1COc2c(C(=O)O)cccc2N(Cc2ccc(Br)c3ccccc23)C1=O [Example 54, (S)-5-((4-Bromonaphthalen-1-yl)methyl)-3-((S)-2-(methylamino)propanamido)-4-oxo-2,3,4,5-tetrahydrobenzo[b][1,4]oxazepine-9-carboxylic acid trifluoroacetate] | 649
16 | CN[C@@H](C)C(=O)N[C@H]1COc2ccccc2N(Cc2nn(-c3ccccc3C#N)c3cc(Br)ccc23)C1=O [Example 72, (S)-N-((S)-5-((6-Bromo-1-(2-cyanophenyl)-1H-indazol-3-yl)methyl)-4-oxo-2,3,4,5-tetrahydrobenzo[b][1,4]oxazepin-3-yl)-2-(methylamino)propanamide trifluoroacetate] | 281
17 | CN[C@@H](C)C(=O)N[C@H]1COc2ccccc2N(Cc2c(OC)ccc3ccccc23)C1=O [Example 29b] | 198
18 | CN[C@@H](C)C(=O)N[C@@H]1C(=O)N(Cc2c(OC)ccc3cc(Br)ccc23)c2cc(C(F)(F)F)ccc2O[C@H]1C [Example 43, (S)-N-[(6S,7S)-9-(6-Bromo-2-methoxy-naphthalen-1-ylmethyl)-6-methyl-8-oxo-2-trifluoromethyl-6,7,8,9-tetrahydro-5-oxa-9-aza-benzocyclohepten-7-yl]-2-methylamino-propionamide trifluoroacetate] | 92
19 | CN[C@@H](C)C(=O)N[C@H]1COc2c(C(=O)NCc3ccc(C(=O)OC)cc3)cccc2N(Cc2c(OC)ccc3cc(Br)ccc23)C1=O [Example 51, 4-({[(S)-9-(6-Bromo-2-methoxy-naphthalen-1-ylmethyl)-7-((S)-2-methylamino-propionylamino)-8-oxo-6,7,8,9-tetrahydro-5-oxa-9-aza-benzocycloheptene-4-carbonyl]-amino}-methyl)-benzoic acid methyl ester] | 410
20 | CN[C@@H](C)C(=O)N[C@H]1COc2c(C(=O)NCCC(=O)O)cccc2N(Cc2c(OC)ccc3cc(Br)ccc23)C1=O [Example 50, 3-{[(S)-9-(6-Bromo-2-methoxy-naphthalen-1-ylmethyl)-74S)-2-methylamino-propionylamino)-8-oxo-6,7,8,9-tetrahydro-5-oxa-9-aza-benzocycloheptene-4-carbonyl]-amino}-propionic acid trifluoroacetate] | 134
21 | CN[C@@H](C)C(=O)N[C@H]1COc2c(C(=O)N3CCN(CCCO)CC3)cccc2N(Cc2ccc(Br)c3ccccc23)C1=O [Example 56, (S)-N-((S)-5-((4-Bromonaphthalen-1-yl)methyl)-9-(4-(3-hydroxypropyl)piperazine-1-carbonyl)-4-oxo-2,3,4,5-tetrahydrobenzo[b][1,4]oxazepin-3-yl)-2-(methylamino)propanamide] | 1600
22 | CN[C@@H](C)C(=O)N[C@H]1COc2c(C(=O)O)cccc2N(Cc2c(OC)ccc3cc(Br)ccc23)C1=O [Example 48, (S)-5-((6-bromo-2-methoxynaphthalen-1-yl)methyl)-3-((S)-2-(methylamino)propanamido)-4-oxo-2,3,4,5-tetrahydrobenzo[b][1,4]oxazepine-9-carboxylic acid trifluoroacetate] | 89
23 | CC[C@H](NCCO)C(=O)N[C@H]1COc2ccccc2N(Cc2c(OC)ccc3cc(Br)ccc23)C1=O [Example 83, (S)-N-((S)-5-((6-Bromo-2-methoxynaphthalen-1-yl)methyl)-4-oxo-2,3,4,5-tetrahydrobenzo[b][1,4]oxazepin-3-yl)-2-(2-hydroxyethylamino)butanamide trifluoroacetate] | 44
24 | CN[C@@H](C)C(=O)N[C@H]1COc2ccccc2N(Cc2cccc(Cl)c2)C1=O [Example 46, (S)-N-((S)-5-(3-Chlorobenzyl)-4-oxo-2,3,4,5-tetrahydrobenzo[13,][1,4]oxazepin-3-yl)-2-(methylamino)propanamide] | 3110
25 | CN[C@@H](C)C(=O)N[C@H]1COc2ccccc2N(Cc2c(OC)ccc3cc(C(=O)OC)ccc23)C1=O [Example 31, Methyl 6-methoxy-5-(((S)-3-((S)-2-(methylamino)propanamido)-4-oxo-3,4-dihydrobenzo[b][1,4]oxazepin-5(2H)-yl)methyl)-2-naphthoate trifluoroacetate] | 189
26 | CN[C@@H](C)C(=O)N[C@H]1COc2c(cccc2C(F)(F)F)N(Cc2noc3ccccc23)C1=O [Example 90, (S)-N-((S)-5-(Benzo[d]isoxazol-3-ylmethyl)-4-oxo-9-(trifluoromethyl)-2,3,4,5-tetrahydrobenzo[b][1,4]oxazepin-3-yl)-2-(methylamino)propanamide hydrochloride] | 490
27 | CN[C@@H](C)C(=O)N[C@H]1COc2ccccc2N(Cc2cc(=O)n(C)c3ccc(F)cc23)C1=O [Example 61, (S)-N-((S)-5-((6-Fluoro-1-methyl-2-oxo-1,2-dihydroquinolin-4-yl)methyl)-4-oxo-2,3,4,5-tetrahydrobenzo[b][1,4]oxazepin-3-yl)-2-(methylamino)propanamide] | 686
28 | CN[C@@H](C)C(=O)N[C@H]1COc2c(C(=O)O)cccc2N(Cc2c(OC)ccc3cc(C(=O)O)ccc23)C1=O [Example 52, (S)-5-((6-Carboxy-2-methoxynaphthalen-1-yl)methyl)-3-((S)-2-(methylamino)propanamido)-4-oxo-2,3,4,5-tetrahydrobenzo[b][1,4]oxazepine-9-carboxylic acid trifluoroacetate] | 59
29 | CN[C@@H](C)C(=O)N[C@H]1COc2c(C(=O)N3CCN(CCO)CC3)cccc2N(Cc2ccc(Br)c3ccccc23)C1=O [Example 55, (S)-N-((S)-5-((4-Bromonaphthalen-1-yl)methyl)-9-(4-(2-hydroxyethyl)piperazine-1-carbonyl)-4-oxo-2,3,4,5-tetrahydrobenzo[b][1,4]oxazepin-3-yl)-2-(methylamino)propanamide] | 957
30 | CN[C@@H](C)C(=O)N[C@H]1COc2ccccc2N(Cc2c(OC)ccc3cc(C(=O)O)ccc23)C1=O [Example 32, 6-Methoxy-5-(((S)-3-((S)-2-(methylamino)propanamido)-4-oxo-3,4-dihydrobenzo[b][1,4]oxazepin-5(2H)-yl)methyl)-2-naphthoic acid trifluoroacetate] | 55
